Measurements: patent publication US20150197480A9 (Academia Sinica, priority 2013, published 2015)
Where two headings read alike, the source gives them in different places.

Tests used:
GLP-1 receptor [1] = molecular target: T1, GLP-1 receptor (Rattus norvegicus, UniProt P32301); conditions: for cAMP production by compound alone: absence of GLP-1; for intrinsic agonistic or antagonistic activity: summary of studies; for effect on GLP-1 dose-response curve / GLP-1 stimulated cAMP production: FIG. 9A
T1 sequence (P32301 22-463): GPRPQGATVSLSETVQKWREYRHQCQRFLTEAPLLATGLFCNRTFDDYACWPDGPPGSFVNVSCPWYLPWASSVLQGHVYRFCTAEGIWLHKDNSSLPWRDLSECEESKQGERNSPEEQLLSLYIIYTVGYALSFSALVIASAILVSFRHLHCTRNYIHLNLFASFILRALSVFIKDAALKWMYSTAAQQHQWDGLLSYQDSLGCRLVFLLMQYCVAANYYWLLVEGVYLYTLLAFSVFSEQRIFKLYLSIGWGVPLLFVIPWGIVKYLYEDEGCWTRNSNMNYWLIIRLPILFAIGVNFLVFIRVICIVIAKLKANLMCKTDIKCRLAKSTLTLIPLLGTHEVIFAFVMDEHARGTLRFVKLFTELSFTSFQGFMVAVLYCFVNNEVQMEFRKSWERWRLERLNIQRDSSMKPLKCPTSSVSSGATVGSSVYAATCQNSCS
Source text: (§1) In the resting stage when the intracellular cAMP is minimal, a large BRET ratio was observed.

GLP-1 = GLP-1 (Homo sapiens, UniProt P01275); assay: Limited trypsin digestion of GLP-1 peptide; type: biochemical; conditions: free GLP-1 or with galanal b; preliminary observation
Source text: This is consistent with the finding that GPCR can exist in multiple active conformations, distinct conformation of the receptor is stabilized by distinct ligand structure and may lead to distinct signaling selectivity (55). […] There are at least two possible mechanisms to account for these observations. […] By binding to and modifying structural conformation of the receptor, the allosteric inhibitor of parturition (PDC 113.824) induces biased signaling when an orthosteric ligand is co-bound to the prostaglandin F2α receptor (56). […] Subtle conformation changes in peptide agonists can lead to selective coupling of the receptor to its downstream signaling pathway. As it has been shown in the case of biased agonist for the type 1 parathyroid hormone receptor (PTH1R) (25) and angiotensin II type 1A receptor ligands (57), subtle structure change of the peptide ligands can profoundly stabilize a distinct conformation of the receptor protein that selectively affects the coupling efficiency of a particular downstream signaling pathway.

[2] = test system: cAMP production elicited by glucagon; conditions: 0.025 mg/ml; FIG. 11
Source text: as §1

GLP-1 receptor [3] = molecular target: T1, GLP-1 receptor; assay: cell-based
Source text: as §1

[4] = test system: cAMP production elicited by GIP; conditions: 0.025 mg/ml; FIG. 11
Source text: as §1

GLP-1 receptor [5] = molecular target: T2, GLP-1 receptor (Homo sapiens, UniProt P43220); assay: Receptor endocytosis assay, U2OS cells co-expressing GLP-1 receptor and β-arrestin2:GFP; type: cell-based; conditions: for positive modulation effect on GLP-1 elicited receptor endocytosis in the presence of exendin 9: FIG. 8, plus 1.8 mM of Exendin 9; for Efficacy of GLP-1 to elicit receptor endocytosis: Table 2, printed (100%), GLP-1 only or GLP-1 plus indicated compound
T2 construct: expressed in transfected cells; host or cells: U2OS osteosarcoma cells stably expressing beta-arrestin2:GFP (Norak Biosciences)
Protocol: U2OS osteosarcoma cell line stably expressing a β-arrestin2:GFP fusion protein was obtained from Norak Biosciences (now Molecular Devices, part of MDS Inc., Mississauga, Ontario). […] Extracts were supplied at a concentration of 100 mg/ml in 100% DMSO. […] Plates were washed with PBS twice and sealed and could be stored at 4° C. The final concentration of the extract in the cell plate was 0.1, 0.03 and 0.001 mg/ml, and the final DMSO concentration was 1%.
Images and data of the cells were performed according to reported methods (51), using an ArrayScan® VTI HCS Reader (Cellomics, Inc. Pittsburgh, Pa.). […] A 20×0.4 numerical aperture microscope objective was used for the imaging, 3 fields were imaged per well, and CELLOMICS's Spot Detector BIOAPPLICATION was used to acquire and analyze the images. For these experiments, the Spot Detector BIOAPPLICATION used the Hoechst-labeled nuclei to identify individual cells and then automatically counted and analyzed the GFP-labeled spots associate with each cell. In addition to the number of spots and the sum of their areas and pixel intensities, the BIOAPPLICATION also reports properties of the individual nuclei such as their area.
One unit of activity is defined as the activity that will reach 50% of maximal response in a well of 384-well plate.
In addition, these processes can be visualized from its image (52), thus easily exclude false positive hits.

PTHR = molecular target: T3, PTHR (Homo sapiens, UniProt Q03431); assay: PTH induced receptor endocytosis, PTHR/β-arrestin 2 GFP U2OS cells; type: cell-based; conditions: 15 nM of PTH; FIG. 5B
T3 construct: expressed in transfected cells
T3 sequence (Q03431 27-593): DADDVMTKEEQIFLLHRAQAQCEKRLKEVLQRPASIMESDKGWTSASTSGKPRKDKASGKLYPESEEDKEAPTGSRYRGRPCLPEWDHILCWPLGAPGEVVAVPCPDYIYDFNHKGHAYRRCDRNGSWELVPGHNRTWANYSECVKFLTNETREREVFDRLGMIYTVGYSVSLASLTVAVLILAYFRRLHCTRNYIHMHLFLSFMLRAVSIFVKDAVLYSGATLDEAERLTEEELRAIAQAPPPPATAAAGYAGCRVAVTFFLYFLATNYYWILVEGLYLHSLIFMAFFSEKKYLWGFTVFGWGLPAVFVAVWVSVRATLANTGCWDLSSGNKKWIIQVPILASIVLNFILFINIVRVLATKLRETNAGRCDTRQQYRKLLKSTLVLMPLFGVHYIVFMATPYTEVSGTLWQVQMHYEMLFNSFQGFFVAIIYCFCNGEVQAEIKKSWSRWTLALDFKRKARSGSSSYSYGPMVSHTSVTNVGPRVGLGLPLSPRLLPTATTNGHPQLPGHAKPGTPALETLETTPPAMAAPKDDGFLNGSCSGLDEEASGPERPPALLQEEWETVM
Protocol: The GLP-1R/3-arrestin2 GFP (Panel A) or PTHR/β-arrestin 2 GFP (Panel B) double stable expression U2OS cells were plated in 384-well plastic plates at a density of 3000 cell/well and cultured overnight.
U2OS osteosarcoma cell line stably expressing a β-arrestin2:GFP fusion protein was obtained from Norak Biosciences (now Molecular Devices, part of MDS Inc., Mississauga, Ontario). […] Extracts were supplied at a concentration of 100 mg/ml in 100% DMSO. […] The 3 cell assay plates were incubated at room temperature for 60 min before fixation with 2% formaldehyde and labeling of the cell nuclei with 5 μg/mL of the DNA-binding dye Hoechst 33342 (Molecular Probes, Eugene, Oreg.) for 1 hr. Plates were washed with PBS twice and sealed and could be stored at 4° C. The final concentration of the extract in the cell plate was 0.1, 0.03 and 0.001 mg/ml, and the final DMSO concentration was 1%.

T2 sequence (P43220 24-463, species assumed): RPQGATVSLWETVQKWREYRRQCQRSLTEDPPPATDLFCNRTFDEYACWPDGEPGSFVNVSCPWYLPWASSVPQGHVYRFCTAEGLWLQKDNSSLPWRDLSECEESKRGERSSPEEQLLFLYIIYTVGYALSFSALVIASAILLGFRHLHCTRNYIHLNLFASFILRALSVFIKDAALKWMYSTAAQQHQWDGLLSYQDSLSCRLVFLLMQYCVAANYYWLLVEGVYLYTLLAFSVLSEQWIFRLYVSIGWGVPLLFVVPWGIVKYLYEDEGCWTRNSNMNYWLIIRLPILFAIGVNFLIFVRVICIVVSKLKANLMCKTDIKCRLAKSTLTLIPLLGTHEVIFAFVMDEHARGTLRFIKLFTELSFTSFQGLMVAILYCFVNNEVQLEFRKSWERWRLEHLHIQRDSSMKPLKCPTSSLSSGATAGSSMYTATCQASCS
Chain of GLP-1 (P01275 98-127 limits assumed): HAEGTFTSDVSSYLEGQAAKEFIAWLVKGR

COC(=O)C1=CC[C@H]2[C@@H](CC[C@H]3C(C)(C)CCC[C@]23C)C(=O)C1 (racemic) [RJ-011, (±)-(6aS,11aS,11bR)-methyl 4,4,11b-trimethyl-7-oxo-2,3,4,4a,5,6,6a,7,8,11,11a,11b-dodecahydro-1H-cyclohepta[a]naphthalene-9-carboxylate]
melting point: 93 to 94 °C

CC1(C)CCC[C@]2(C)[C@H]3CC=C(CO)C[C@@H](O)[C@@H]3CC[C@@H]12 (racemic) [RJ-013, (±)-(6aS,7R,11aS,11bR)-9-(hydroxymethyl)-4,4,11b-trimethyl-2,3,4,4a,5,6,6a,7,8,11,11a,11b-dodecahydro-1H-cyclohepta[a]naphthalen-7-ol]
melting point: 134 to 135 °C

COC(=O)[C@@H]1CC[C@H]2C(CC[C@H]3C(C)(C)CCC[C@]23C)C(=O)C1 (mixture of isomers) [RJ-015, (±)-(6aS,11aS,11bR)-methyl 4,4,11b-trimethyl-7-oxotetradecahydro-1H-cyclo-hepta-[a]naphthalene-9-carboxylate]
melting point: 67 to 68 °C

COc1cc(C2C(NC(=O)c3ccc(NC(=O)OC(C)(C)C)cc3)(C(=O)O)C(c3ccc(OC(=O)c4cccs4)c(OC)c3)C2(NC(=O)c2ccc(NC(=O)OC(C)(C)C)cc2)C(=O)O)ccc1OC(=O)c1cccs1 (stereo not drawn) [Boc5, reference compound]
concentration needed to stimulate low level cAMP production, fold higher (GLP-1 receptor [1]; RINm5F cells): 1000 fold

CC[C@H](C)[C@H](NC(=O)[C@H](Cc1ccccc1)NC(=O)[C@H](CCC(=O)O)NC(=O)[C@H](CCCCN)NC(=O)[C@H](C)NC(=O)[C@H](C)NC(=O)[C@H](CCC(N)=O)NC(=O)CNC(=O)[C@H](CCC(=O)O)NC(=O)[C@H](CC(C)C)NC(=O)[C@H](Cc1ccc(O)cc1)NC(=O)[C@H](CO)NC(=O)[C@H](CO)NC(=O)[C@@H](NC(=O)[C@H](CC(=O)O)NC(=O)[C@H](CO)NC(=O)[C@@H](NC(=O)[C@H](Cc1ccccc1)NC(=O)[C@@H](NC(=O)CNC(=O)[C@H](CCC(=O)O)NC(=O)[C@H](C)NC(=O)[C@@H](N)Cc1c[nH]cn1)[C@@H](C)O)[C@@H](C)O)C(C)C)C(=O)N[C@@H](C)C(=O)N[C@@H](Cc1c[nH]c2ccccc12)C(=O)N[C@@H](CC(C)C)C(=O)N[C@H](C(=O)N[C@@H](CCCCN)C(=O)NCC(=O)N[C@@H](CCCNC(=N)N)C(=O)NCC(=O)O)C(C)C [GLP-1]
degradation of GLP-1 by limited trypsin digestion (GLP-1): quickly degraded

Cl.c1ccc(C2CCCC2NC2=NCCCCCCCCCCC2)cc1 (stereo not drawn) [MDL 12330A, reference compound]
GLP-1 or forskolin dose response of cAMP (BRET ratio) in presence of inhibitor (GLP-1 receptor [1]; 250 μM): eliminated

COC(=O)C1=CCC2C(CO)(CCC3C(C)(C)CCCC32C)C(=O)C1 [RJ-022, (6aR,1aR,11bS)-methyl6a-(hydroxymethyl)-4,4,11b-trimethyl-7-oxo-2,3,4,4a,5,6,6a,7,8,11,11a,11b-dodecahydro-1H-cyclohepta[a]naphthalene-9-carboxylate]
melting point: 179 to 180 °C

CC1(C)CCC[C@@]2(C)[C@H]1CC[C@@]1(CO)C(O)CC(CO)=CC[C@@H]12 (stereo partly drawn) [compound 2]
effect on cAMP production elicited by glucagon [2]: do not affect | EC50 (GLP-1 receptor [3]): 3.1 µM | concentration at which enhancement of cAMP production became saturated (GLP-1 receptor [1]; 3 nM of GLP-1, FIG. 9B): 0.03 mg/mL | left shift of dose response curve of GLP-1 (GLP-1 receptor [1]; 0.0025 mg/ml of compound 2): 2.5 orders of magnitude | potentiating effect on GLP-1 stimulated cAMP production in presence of exendin 9 or MDL12330A (GLP-1 receptor [1]; FIG. 10A, 10B): blocked | effect on cAMP production by small molecule agonist Boc5 (GLP-1 receptor [1]; RINm5F cells): little effect | potentiation of the affinity of GLP-1 / GLP-1 dependent cAMP production (GLP-1 receptor [1]; RINm5F cells): up to 1000 fold | potentiation of the affinity of GLP-1 / GLP-1 dependent cAMP production (GLP-1 receptor [1]; RINm5F cells, listed as Compound 2): 1000 fold | cAMP production by compound alone (GLP-1 receptor [1]): not able to induce cAMP production | cAMP production by compound alone (GLP-1 receptor [1]; listed as Compound 2): does not elicit cAMP production in the absence of GLP-1 | intrinsic agonistic or antagonistic activity (GLP-1 receptor [1]): without intrinsic agonistic or antagonistic activity | effect on cAMP production elicited by GIP [4]: do not affect | positive modulation effect on GLP-1 elicited receptor endocytosis in the presence of exendin 9 (GLP-1 receptor [5]): diminished | Efficacy of GLP-1 to elicit receptor endocytosis (GLP-1 receptor [5]): 82%

CC1(C)CCC[C@@]2(C)C1CC[C@@]1(C=O)[C@H](O)CC(C=O)=CC[C@@H]12 (stereo partly drawn) [galanal B]
degradation of GLP-1 by limited trypsin digestion (GLP-1): protects GLP-1 from trypsin degradation | effect on GLP-1 dose-response curve / GLP-1 stimulated cAMP production (GLP-1 receptor [1]; RINm5F cells): did not significantly affect | effect on GLP-1 dose-response curve / GLP-1 stimulated cAMP production (GLP-1 receptor [1]; RINm5F cells, listed as galanal b): neutral | cAMP production by 3 nM of GLP-1 (GLP-1 receptor [1]; galanal B up to 0.04 mg/ml, FIG. 9B): not changed | intrinsic agonistic or antagonistic activity (GLP-1 receptor [1]): without intrinsic agonistic or antagonistic activity | increase of the affinity of GLP-1 (GLP-1 receptor [5]; FIG. 5C, 0.001 mg/ml of galanal B): 4 folds | positive modulation effect on GLP-1 elicited receptor endocytosis in the presence of exendin 9 (GLP-1 receptor [5]): diminished | Efficacy of GLP-1 to elicit receptor endocytosis (GLP-1 receptor [5]): 115.2% | potentiation effect on PTH induced receptor endocytosis (selectivity) (PTHR): did not show similar effect on PTH and its cognate receptor

CC1(C)CCC[C@]2(C)[C@H]3CC=C(C=O)C[C@@H](O)[C@]3(C=O)CC[C@@H]12 [galanal B]
EC50 to potentiate receptor endocytosis elicited by 4 nM GLP-1 (GLP-1 receptor [5]; 4 nM GLP-1): 0.24 µg/mL | GLP-1 response potentiated by the fraction (GLP-1 receptor [5]; 0.0002 mg/ml, 4 nM GLP-1, from 20%): 40% | potentiation effect on PTH induced receptor endocytosis (selectivity) (PTHR): selective for GLP-1 but not for PTH
